Reference: publication PMC9599520, “The Membrane Activity of the Amphibian Temporin B Peptide Analog TB_KKG6K Sheds Light on the Mechanism That Kills Candida albicans” (mSphere, 2022)
Where “and” joins values, the source holds several entries; their conditions need not be identical. Equal entries are not always repeated. Where no end group is shown, it is not given here.

Columns and labels:
[1] = tested on: C. albicans cell membrane; test: Membrane depolarization assay with DiSC3(5) dye; type: cell-based, Candida albicans
[2] = tested on: mammalian cells; primary human skin cells and three-dimensional skin epidermal models; conditions: cited from earlier work
[3] = Vesicle leakage assay, PC-CL; type: biochemical; conditions: for relative change in leakage compared to PC-LUVs: P ≤ 0.05; for % Leakage: PC-CL-LUVs, 50 μM lipid, ANTS-DPX, HEPES pH 7.4, 30 min, 37°C, 1% Triton X-100 = 100%, mean ± SD, 2 experiments in duplicates
[4] = Vesicle leakage assay, PC-ergosterol; type: biochemical; conditions: for relative change in leakage compared to PC-LUVs: P ≤ 0.05; for % Leakage: PC-ergosterol-LUVs, 50 μM lipid, ANTS-DPX, HEPES pH 7.4, 30 min, 37°C, 1% Triton X-100 = 100%, mean ± SD, 2 experiments in duplicates
[5] = Vesicle leakage assay, PC-PE-ergosterol; type: biochemical; conditions: for relative change in leakage compared to PC-LUVs: P ≤ 0.05; for % Leakage: PC-PE-ergosterol-LUVs, 50 μM lipid, ANTS-DPX, HEPES pH 7.4, 30 min, 37°C, 1% Triton X-100 = 100%, mean ± SD, 2 experiments in duplicates
[6] = Vesicle leakage assay, PC-PE; type: biochemical; conditions: for relative change in leakage compared to PC-LUVs: P ≤ 0.05; for % Leakage: PC-PE-LUVs, 50 μM lipid, ANTS-DPX, HEPES pH 7.4, 30 min, 37°C, 1% Triton X-100 = 100%, mean ± SD, 2 experiments in duplicates
[7] = cited from earlier work
C. albicans cells = test: Ultrastructural analysis by electron microscopy of cryo-fixed cells; conditions: 30 μM, 60 min, 30°C
[8] = Vesicle leakage assay, PG; type: biochemical; conditions: for relative change in leakage compared to PC-LUVs: P ≤ 0.05; for % Leakage: PG-LUVs, 50 μM lipid, ANTS-DPX, HEPES pH 7.4, 30 min, 37°C, 1% Triton X-100 = 100%, mean ± SD, 2 experiments in duplicates
[9] = Vesicle leakage assay, PC-PI; type: biochemical; conditions: for relative change in leakage compared to PC-LUVs: P ≤ 0.05; for % Leakage: PC-PI-LUVs, 50 μM lipid, ANTS-DPX, HEPES pH 7.4, 30 min, 37°C, 1% Triton X-100 = 100%, mean ± SD, 2 experiments in duplicates
[10] = Vesicle leakage assay, PC-PS-ergosterol; type: biochemical; conditions: for relative change in leakage compared to PC-LUVs: P ≤ 0.05; for % Leakage: PC-PS-ergosterol-LUVs, 50 μM lipid, ANTS-DPX, HEPES pH 7.4, 30 min, 37°C, 1% Triton X-100 = 100%, mean ± SD, 2 experiments in duplicates
[11] = Vesicle leakage assay, PG-PE-CL; type: biochemical; conditions: PG-PE-CL-LUVs, 50 μM lipid, ANTS-DPX, HEPES pH 7.4, 30 min, 37°C, 1% Triton X-100 = 100%, mean ± SD, 2 experiments in duplicates
[12] = Vesicle leakage assay, PC-PS; type: biochemical; conditions: for % Leakage: PC-PS-LUVs, 50 μM lipid, ANTS-DPX, HEPES pH 7.4, 30 min, 37°C, 1% Triton X-100 = 100%, mean ± SD, 2 experiments in duplicates
[13] = Vesicle leakage assay, PC; type: biochemical; conditions: PC-LUVs, 50 μM lipid, ANTS-DPX, HEPES pH 7.4, 30 min, 37°C, 1% Triton X-100 = 100%, mean ± SD, 2 experiments in duplicates
[14] = Vesicle leakage assay, PC-sphingomyelin; type: biochemical; conditions: for relative change in leakage compared to PC-LUVs: P ≤ 0.05; for % Leakage: PC-sphingomyelin-LUVs, 50 μM lipid, ANTS-DPX, HEPES pH 7.4, 30 min, 37°C, 1% Triton X-100 = 100%, mean ± SD, 2 experiments in duplicates
[15] = Vesicle leakage assay, PC-ceramide; type: biochemical; conditions: for % Leakage: PC-ceramide-LUVs, 50 μM lipid, ANTS-DPX, HEPES pH 7.4, 30 min, 37°C, 1% Triton X-100 = 100%, mean ± SD, 2 experiments in duplicates

Question: Which “time to maximum DiSC3(5) fluorescence intensity” value ([1]; 1 μM peptide) does the source give for “KKLLPIVKNLLKSLL-NH2 (C-terminus assumed) [TB_KKG6K]” here?
Answer: Its value is 15 min.

Question: What about the “time to maximum DiSC3(5) fluorescence intensity” value ([1]; 2 μM peptide) of the same substance?
Answer: Its value is 25 min.

Question: What about the “membrane depolarization, DiSC3(5) fluorescence intensity” value ([1]; 1 × 10^6 cells/mL, 30°C, 60 min, TB analog 0.5, 1, 2 μM, Triton X-100 1% (wt/vol), PCγ^C-terminal 32 μM) of the same substance?
Answer: Its value is “induced membrane depolarization in a concentration- and time-dependent manner”.

Question: What about the “hemolysis and cytotoxicity to mammalian cells in vitro” value [2] of the same substance?
Answer: Its value is “neither hemolytic nor cytotoxic”.

Question: And the “tolerance by primary human skin cells and three-dimensional skin epidermal models in vitro” value [2]?
Answer: Its value is “well tolerated”.

Question: What about the “relative change in leakage compared to PC-LUVs” value (shortened to “relative change in leakage”) ([3]; 2 μM peptide) of the same substance?
Answer: Its value is −93%.

Question: What about the “relative change in leakage” value ([3]; 4 μM peptide) of the same substance?
Answer: The value was −75%.

Question: And the “relative change in leakage” value ([3]; 8 μM peptide)?
Answer: The value was “+20%”.

Question: And the “% Leakage” value ([3]; 2 μM peptide (25:1))?
Answer: The value was 2.2 ± 0.8%.

Question: And the “% Leakage” value ([3]; 4 μM peptide (12:1))?
Answer: Its value is 9.9 ± 0.7%.

Question: What about the “% Leakage” value ([3]; 8 μM peptide (6:1)) of the same substance?
Answer: Its value is 59.0 ± 5.8%.

Question: What about the “relative change in leakage” value ([4]; 2 μM peptide) of the same substance?
Answer: Its value is −71%.

Question: And the “relative change in leakage” value ([4]; 4 μM peptide)?
Answer: The value was −68%.

Question: And the “relative change in leakage” value ([4]; 8 μM peptide)?
Answer: Its value is −66%.

Question: What about the “% Leakage” value ([4]; 2 μM peptide (25:1)) of the same substance?
Answer: Its value is 9.8 ± 1.5%.

Question: And the “% Leakage” value ([4]; 4 μM peptide (12:1))?
Answer: Its value is 13.0 ± 0.6%.

Question: What about the “% Leakage” value ([4]; 8 μM peptide (6:1)) of the same substance?
Answer: The value was 16.9 ± 2.0%.

Question: What about the “relative change in leakage” value ([5]; 2 μM peptide) of the same substance?
Answer: The value was −56%.

Question: And the “relative change in leakage” value ([5]; 4 μM peptide)?
Answer: The value was −58%.

Question: What about the “relative change in leakage” value ([5]; 8 μM peptide) of the same substance?
Answer: The value was −68%.

Question: And the “% Leakage” value ([5]; 2 μM peptide (25:1))?
Answer: The value was 14.8 ± 0.8%.

Question: And the “% Leakage” value ([5]; 4 μM peptide (12:1))?
Answer: The value was 17.1 ± 6.0%.

Question: And the “% Leakage” value ([5]; 8 μM peptide (6:1))?
Answer: The value was 15.8 ± 1.3%.

Question: What about the “relative change in leakage” value ([6]; 2 μM peptide) of the same substance?
Answer: Its value is −32%.

Question: And the “relative change in leakage” value ([6]; 4 μM peptide)?
Answer: Its value is −22%.

Question: What about the “relative change in leakage” value ([6]; 8 μM peptide) of the same substance?
Answer: Its value is −19%.

Question: What about the “% Leakage” value ([6]; 2 μM peptide (25:1)) of the same substance?
Answer: The value was 22.8 ± 1.3%.

Question: What about the “% Leakage” value ([6]; 4 μM peptide (12:1)) of the same substance?
Answer: Its value is 31.5 ± 2.1%.

Question: And the “% Leakage” value ([6]; 8 μM peptide (6:1))?
Answer: Its value is 40.0 ± 3.1%.

Question: And the “hydrophobicity (hydrophobic amino acids)” value [7]?
Answer: The value was 53%.

Question: And the positive net charge ([7]; pH 7)?
Answer: The positive net charge was “+3.9”.

Question: What about the cell lysis (C. albicans cells) of the same substance?
Answer: Its cell lysis is “indications of cell lysis were not observed”.

Question: What about the ultrastructural damage (C. albicans cells) of the same substance?
Answer: Its ultrastructural damage is “severe ultrastructural damage to the vast majority of cells”.

Question: And the “relative change in leakage” value ([8]; 4 μM peptide)?
Answer: The value was “+30%”.

Question: And the “relative change in leakage” value ([8]; 8 μM peptide)?
Answer: The value was “+20%”.

Question: And the “% Leakage” value ([8]; 2 μM peptide (lipid:peptide 25:1))?
Answer: The value was 56% ± 4% and 56.0 ± 4.0%.

Question: What about the “% Leakage” value ([8]; 4 μM peptide (12:1)) of the same substance?
Answer: The value was 57.7 ± 3.9%.

Question: And the “% Leakage” value ([8]; 8 μM peptide (6:1))?
Answer: Its value is 61% ± 4% and 61.1 ± 4.1%.

Question: What about the “relative change in leakage” value ([9]; 4 μM peptide) of the same substance?
Answer: The value was “+29%”.

Question: And the “relative change in leakage” value ([9]; 8 μM peptide)?
Answer: The value was “+15%”.

Question: And the “% Leakage” value ([9]; 2 μM peptide (25:1))?
Answer: Its value is 37.7 ± 3.9%.

Question: And the “% Leakage” value ([9]; 4 μM peptide (12:1))?
Answer: The value was 52.5 ± 2.4%.

Question: And the “% Leakage” value ([9]; 8 μM peptide (6:1))?
Answer: Its value is 56.5 ± 2.9%.

Question: And the “relative change in leakage” value ([10]; 2 μM peptide)?
Answer: The value was −36%.

Question: And the “relative change in leakage” value ([10]; 4 μM peptide)?
Answer: Its value is −26%.

Question: What about the “% Leakage” value ([10]; 2 μM peptide (25:1)) of the same substance?
Answer: Its value is 21.8 ± 3.5%.

Question: What about the “% Leakage” value ([10]; 4 μM peptide (12:1)) of the same substance?
Answer: The value was 30.1 ± 4.6%.

Question: And the “% Leakage” value ([10]; 8 μM peptide (6:1))?
Answer: Its value is 46.3 ± 4.2%.

Question: And the “% Leakage” value ([11]; 2 μM peptide (25:1))?
Answer: The value was 5.3 ± 1.3%.

Question: And the “% Leakage” value ([11]; 4 μM peptide (12:1))?
Answer: The value was 40.2 ± 0.9%.

Question: What about the “% Leakage” value ([11]; 8 μM peptide (6:1)) of the same substance?
Answer: The value was 61% ± 3% and 61.5 ± 2.7%.

Question: What about the “relative change in leakage” value ([12]; 2 μM peptide, P ≤ 0.05) of the same substance?
Answer: The value was −33%.

Question: And the “% Leakage” value ([12]; 2 μM peptide (25:1))?
Answer: The value was 22.6 ± 3.3%.

Question: What about the “% Leakage” value ([12]; 4 μM peptide (12:1)) of the same substance?
Answer: The value was 38.1 ± 10.5%.

Question: And the “% Leakage” value ([12]; 8 μM peptide (6:1))?
Answer: Its value is 47.4 ± 15.1%.

Question: And the “% Leakage” value ([13]; 2 μM peptide (25:1))?
Answer: The value was 33.8 ± 3.0%.

Question: And the “% Leakage” value ([13]; 4 μM peptide (12:1))?
Answer: The value was 40.6 ± 3.2%.

Question: And the “% Leakage” value ([13]; 8 μM peptide (6:1))?
Answer: The value was 49.2 ± 4.5%.

Question: And the “relative change in leakage” value ([14]; 2 μM peptide)?
Answer: The value was −44%.

Question: What about the “relative change in leakage” value ([14]; 4 μM peptide) of the same substance?
Answer: The value was −34%.

Question: What about the “relative change in leakage” value ([14]; 8 μM peptide) of the same substance?
Answer: Its value is −31%.

Question: And the “% Leakage” value ([14]; 2 μM peptide (25:1))?
Answer: Its value is 18.8 ± 3.1%.

Question: What about the “% Leakage” value ([14]; 4 μM peptide (12:1)) of the same substance?
Answer: Its value is 26.5 ± 1.0%.

Question: And the “% Leakage” value ([14]; 8 μM peptide (6:1))?
Answer: Its value is 33.9 ± 2.0%.

Question: And the “relative change in leakage” value ([15]; 2 μM peptide, P ≤ 0.05)?
Answer: Its value is −47%.

Question: And the “% Leakage” value ([15]; 2 μM peptide (25:1))?
Answer: The value was 17.9 ± 1.8%.

Question: And the “% Leakage” value ([15]; 4 μM peptide (12:1))?
Answer: The value was 39.9 ± 2.4%.

Question: And the “% Leakage” value ([15]; 8 μM peptide (6:1))?
Answer: The value was 44.8 ± 1.9%.
